Converted amounts (≈) assume the structure as drawn.
Experiments:
[1] = tested on: S. epidermidis ATCC 12228; test: direct antimicrobial activity (disc-diffusion, MIC, MBC); assay type: cell-based; settings: Staphylococcus epidermidis, ATCC12228; for zone of inhibition at 0.4 mg/disc: 0.4 mg per disc, 9 mm disc (linezolid 0.03 mg, 6 mm disc), - no zone, read-out: Diameter of inhibition zone
Method in brief: (§1)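 Disc-diffusion (0.4 mg compound per disc, DMSO solutions), MIC, and MBC for bacteria or MFC for yeasts, run per EUCAST and CLSI recommendations. References: nitrofurantoin for Gram-negative rods, linezolid for Gram-positive bacteria, fluconazole for fungi.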

E. faecalis ATCC 29212 = test: as above; assay type: cell-based; settings: Enterococcus faecalis, ATCC29212; for zone of inhibition at 0.4 mg/disc: 0.4 mg per disc, 9 mm disc (linezolid 0.03 mg, 6 mm disc), - no zone, read-out: Diameter of inhibition zone
Method in brief: as §1

S. aureus ATCC 6538P = test: as above; assay type: cell-based; settings: Staphylococcus aureus, ATCC6538P; for zone of inhibition at 0.4 mg/disc: 0.4 mg per disc, 9 mm disc (linezolid 0.03 mg, 6 mm disc), - no zone, read-out: Diameter of inhibition zone
Method in brief: as §1

[2] = tested on: S. aureus ATCC 43300 MRSA; test: as above; assay type: cell-based; settings: Staphylococcus aureus; for zone of inhibition at 0.4 mg/disc: 0.4 mg per disc, 9 mm disc (linezolid 0.03 mg, 6 mm disc), - no zone, read-out: Diameter of inhibition zone
Method in brief: as §1

E. faecium ATCC 6057 = test: as above; assay type: cell-based; settings: Enterococcus faecium, ATCC6057; for zone of inhibition at 0.4 mg/disc: 0.4 mg per disc, 9 mm disc (linezolid 0.03 mg, 6 mm disc), - no zone, read-out: Diameter of inhibition zone
Method in brief: as §1

[3] = tested on: E. coli 77 CMY-2-positive; test: combination disc test CDT-AmpC; assay type: cell-based; settings: Escherichia coli, read-out: Diameter of inhibition zone, CAZ-30 disc with agent; for zone of inhibition at 300 µg/disc: agent 0.3 mg per disc
C. krusei ATCC 6258 = test: antifungal activity (disc-diffusion, MIC, MFC); assay type: cell-based, Candida krusei; settings: Pichia kudriavzevii, ATCC6258; for MIC: fluconazole by Etest
Method in brief: as §1

B. subtilis ATCC 6633 = test: direct antimicrobial activity (disc-diffusion); assay type: cell-based; settings: Bacillus subtilis, ATCC6633; 0.4 mg per disc, 9 mm disc (linezolid 0.03 mg, 6 mm disc); - no zone; read-out: Diameter of inhibition zone
Protocol: Direct antimicrobial activity against Gram-negative and Gram-positive bacterial strains, as well as against yeast, was examined as previously described by the disc-diffusion test, the MIC determination assay, the MBC (for bacteria), and the MFC (for yeasts) determination tests. All the above-mentioned tests were performed according to EUCAST [71, 72] and CLSI [73, 74, 75, 76, 77] recommendations. The following reference agents were used: nitrofurantoin (for Gram-negative rods), linezolid (for Gram-positive bacteria), and fluconazole (in the case of fungi). The new aromatic diboronic acids were dissolved in DMSO (Sigma, St. Louis, MO, USA). In the disc-diffusion test, the concentration of new agents was 0.4 mg per disc.

[4] = tested on: C. parapsilosis ATCC 22019; test: antifungal activity (disc-diffusion, MIC, MFC); assay type: cell-based, Candida parapsilosis; settings: Lodderomyces parapsilosis, ATCC22019; for MIC: fluconazole by Etest
Method in brief: as §1

[5] = MTT-based viability assay; assay type: cell-based; settings: human, MRC-5 human fibroblasts, 72 h, read-out: Viability of MRC-5 cells (% of viable cells ± SD)
Method in brief: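 MRC-5 human fibroblasts grown in MEME with 10% FBS at 37 °C, 5% CO2, tested by MTT with absorbance read at 570 nm. Viability given as percent of untreated control cells, in triplicate.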

C. tropicalis ATCC 750 = test: antifungal activity (disc-diffusion, MIC, MFC); assay type: cell-based; settings: Candida tropicalis, ATCC750; for MIC: fluconazole by Etest
Method in brief: as §1

C. tropicalis IBA 171 = test: antifungal activity (disc-diffusion, MIC, MFC); assay type: cell-based; settings: Candida tropicalis, IBA171; for MIC: fluconazole by Etest
Method in brief: as §1

C. albicans ATCC 90028 = test: antifungal activity (disc-diffusion, MIC, MFC); assay type: cell-based; settings: Candida albicans, ATCC90028; for MIC: fluconazole by Etest
Method in brief: as §1

S. cerevisiae ATCC 9763 = test: antifungal activity (disc-diffusion, MIC, MFC); assay type: cell-based; settings: Saccharomyces cerevisiae, ATCC9763; for MIC: fluconazole by Etest
Method in brief: as §1

[6] = tested on: K. pneumoniae ATCC BAA 1705 KPC-2-positive; test: combination disc test CDT-KPC; assay type: cell-based; settings: Klebsiella pneumoniae, BAA1705, read-out: Diameter of inhibition zone, MEM-10 disc with agent; for zone of inhibition at 300 µg/disc: agent 0.3 mg per disc
[7] = tested on: P. aeruginosa MUW 700 cAmpC-positive; test: combination disc test CDT-AmpC; assay type: cell-based; settings: Pseudomonas aeruginosa, read-out: Diameter of inhibition zone, CAZ-30 disc with agent; for zone of inhibition at 300 µg/disc: agent 0.3 mg per disc
[8] = 0.4 mg per disc, 9 mm disc (fluconazole 0.025 mg, 6 mm disc), - no zone, read-out: Diameter of inhibition zone

Compound	MIC [1]	zone of inhibition at 0.4 mg/disc [1]	MIC (E. faecalis ATCC 29212)	zone of inhibition at 0.4 mg/disc (E. faecalis ATCC 29212)	MIC (S. aureus ATCC 6538P)	zone of inhibition at 0.4 mg/disc (S. aureus ATCC 6538P)	MIC [2]	zone of inhibition at 0.4 mg/disc [2]	MIC (E. faecium ATCC 6057)	zone of inhibition at 0.4 mg/disc (E. faecium ATCC 6057)	MIC (C. krusei ATCC 6258)	zone of inhibition at 0.4 mg/disc (B. subtilis ATCC 6633)	MIC [4]	viability at 72 h, 12.5 mg/L [5]	viability at 72 h, 25 mg/L [5]	viability at 72 h, 50 mg/L [5]	MIC (C. tropicalis ATCC 750)	MIC (C. tropicalis IBA 171)	MIC (C. albicans ATCC 90028)	MIC (S. cerevisiae ATCC 9763)	also measured
OB(O)c1cc(Br)c(B(O)O)cc1Br [1i]	50 µg/mL (≈ 155 µM)	21 mm	200 µg/mL (≈ 618 µM)	14 mm	25 µg/mL (≈ 77.3 µM)	14 mm	100 µg/mL (≈ 309 µM)	11 mm	200 µg/mL (≈ 618 µM)	11 mm	50 µg/mL (≈ 155 µM)	18 mm	50 µg/mL (≈ 155 µM)	122%	114 ± 4.8%	101.4 ± 0.9%	50 µg/mL (≈ 155 µM)	25 µg/mL (≈ 77.3 µM)	12.5 µg/mL (≈ 38.6 µM)	50 µg/mL (≈ 155 µM)	zone of inhibition at 100 µg/disc ([3]; agent 0.1 mg per disc): 16 mm; zone of inhibition at 0.4 mg/disc (C. krusei ATCC 6258; [8]): 22 mm; zone of inhibition at 0.4 mg/disc [4, 8]: 24 mm; zone of inhibition at 0.4 mg/disc (C. tropicalis ATCC 750; [8]): 25 mm; zone of inhibition at 0.4 mg/disc (C. tropicalis IBA 171; [8]): 29 mm; zone of inhibition at 0.4 mg/disc (C. albicans ATCC 90028; [8]): 31 mm; zone of inhibition at 0.4 mg/disc (S. cerevisiae ATCC 9763; [8]): 24 mm; zone of inhibition at 100 µg/disc ([6]; agent 0.1 mg per disc): 6 mm; zone of inhibition at 100 µg/disc ([7]; agent 0.1 mg per disc): 16 mm
OB(O)c1cc(C(F)(F)F)cc(B(O)O)c1F [2e]	0.78 µg/mL (≈ 3.1 µM)	35 mm	50 µg/mL (≈ 199 µM)	21 mm	6.25 µg/mL (≈ 24.8 µM)	29 mm	12.5 µg/mL (≈ 49.7 µM)	25 mm	100 µg/mL (≈ 397 µM)	18 mm	> 400 µg/mL	20 mm	400 µg/mL (≈ 1590 µM)	96.6 ± 6.4%	84.4 ± 4.8%	63.1 ± 1.4%	> 400 µg/mL	400 µg/mL (≈ 1590 µM)	400 µg/mL (≈ 1590 µM)	> 400 µg/mL	zone of inhibition at 300 µg/disc [3]: 19 mm; zone of inhibition at 300 µg/disc [6]: 6 mm; zone of inhibition at 300 µg/disc [7]: 16 mm
OB(O)c1ccc(F)cc1B(O)O [3c]	100 µg/mL (≈ 544 µM)	24 mm	400 µg/mL (≈ 2180 µM)	–	200 µg/mL (≈ 1090 µM)	13 mm	400 µg/mL (≈ 2180 µM)	11 mm	400 µg/mL (≈ 2180 µM)	12 mm	200 µg/mL (≈ 1090 µM)	18 mm	100 µg/mL (≈ 544 µM)	97.1 ± 6.9%	106 ± 4.5%	82.3 ± 12.9%	50 µg/mL (≈ 272 µM)	50 µg/mL (≈ 272 µM)	100 µg/mL (≈ 544 µM)	100 µg/mL (≈ 544 µM)	zone of inhibition at 300 µg/disc [3]: 20 mm; zone of inhibition at 300 µg/disc [6]: 12 mm; zone of inhibition at 300 µg/disc [7]: 20 mm
